The supplement of paper PMC8882468
± gives the standard deviation of the averaged measurements.

The compounds below were run on HCI-011.E2 (organoid from an ER-positive breast cancer xenograft) (assay: CTG-3D luminescence at 96 h relative to day-0 seeding control (ratio to day 0); higher = more growth / less cytotoxicity; PDxO 3D drug screen, 96 h, CTG-3D normalised to day-0 seeding control.). Conditions: 0.005 µM; days in culture: 74.

Compared with `C[C@H](NC(=O)CCC(F)(F)F)C(=O)N[C@@H]1C(=O)N(CCO)c2ncccc2-c2ccccc21` [crenigacestat], `CS(=O)(=O)c1ccc(C(=O)Nc2ccc(Cl)c(-c3ccccn3)c2)c(Cl)c1` [vismodegib] is higher in “CTG-3D luminescence at 96 h” value: 1.96 for the first, 1.98 for the second.

Going from `Cc1cc(Nc2ncc(Cl)c(Nc3ccccc3S(=O)(=O)C(C)C)n2)c(OC(C)C)cc1C1CCNCC1` [ceritinib] to `Cc1cc(Nc2ncnc3ccc(NC4=NC(C)(C)CO4)cc23)ccc1Oc1ccn2ncnc2c1` [tucatinib], the “CTG-3D luminescence at 96 h” value falls from 1.77 to 1.74.

First: NC(=O)c1cccc2cn(-c3ccc([C@@H]4CCCNC4)cc3)nc12 [niraparib]
Second: CCN(c1cc(C#CCN2CCOCC2)cc(C(=O)NCc2c(C)cc(C)[nH]c2=O)c1C)[C@H]1CC[C@H](N(C)CCOC)CC1
The “CTG-3D luminescence at 96 h” value of the first is lower: 1.98 for the first, 2.14 for the second.

Same assay, conditions: 0.1 µM

`NC1(C(=O)N[C@@H](CCO)c2ccc(Cl)cc2)CCN(c2nc[nH]c3nccc2-3)CC1` [capivasertib] and `C[C@H](NC(=O)CCC(F)(F)F)C(=O)N[C@@H]1C(=O)N(CCO)c2ncccc2-c2ccccc21` [crenigacestat] are within error of each other in “CTG-3D luminescence at 96 h” value: 1.63 ± 0.41 for the first, 1.98 ± 0.64 for the second.

Compared with `CC(C)n1nc(-c2ccc3oc(N)nc3c2)c2c(N)ncnc21` [sapanisertib], `Cc1cc(Nc2ncnc3ccc(NC4=NC(C)(C)CO4)cc23)ccc1Oc1ccn2ncnc2c1` [tucatinib] is higher in “CTG-3D luminescence at 96 h” value: 0.362 ± 0.027 for the first, 1.87 ± 0.22 for the second.

`O=C(c1ccc(F)c(F)c1Nc1ccc(I)cc1F)N1CC(O)([C@@H]2CCCCN2)C1` [cobimetinib] and `NC(=O)c1cccc2cn(-c3ccc([C@@H]4CCCNC4)cc3)nc12` [niraparib] are within error of each other in “CTG-3D luminescence at 96 h” value: 1.81 ± 0.46 for the first, 1.76 ± 0.67 for the second.

`Cc1cc(Nc2ncc(Cl)c(Nc3ccccc3S(=O)(=O)C(C)C)n2)c(OC(C)C)cc1C1CCNCC1` [ceritinib] and `CS(=O)(=O)c1ccc(C(=O)Nc2ccc(Cl)c(-c3ccccn3)c2)c(Cl)c1` [vismodegib] are within error of each other in “CTG-3D luminescence at 96 h” value: 1.85 ± 0.22 for the first, 1.72 ± 0.5 for the second.

With `CCN(c1cc(C#CCN2CCOCC2)cc(C(=O)NCc2c(C)cc(C)[nH]c2=O)c1C)[C@H]1CC[C@H](N(C)CCOC)CC1` the “CTG-3D luminescence at 96 h” value was 1.74 ± 0.69.

Same assay, conditions: 0.1 µM; days in culture: 74

Going from `NC1(C(=O)N[C@@H](CCO)c2ccc(Cl)cc2)CCN(c2nc[nH]c3nccc2-3)CC1` [capivasertib] to `C[C@H](NC(=O)CCC(F)(F)F)C(=O)N[C@@H]1C(=O)N(CCO)c2ncccc2-c2ccccc21` [crenigacestat], the “CTG-3D luminescence at 96 h” value rises from 1.54 to 2.06.

First: CC(C)n1nc(-c2ccc3oc(N)nc3c2)c2c(N)ncnc21 [sapanisertib]
Second: Cc1cc(Nc2ncnc3ccc(NC4=NC(C)(C)CO4)cc23)ccc1Oc1ccn2ncnc2c1 [tucatinib]
The “CTG-3D luminescence at 96 h” value of the first is lower: 0.283 for the first, 2.19 for the second.

Compared with `O=C(c1ccc(F)c(F)c1Nc1ccc(I)cc1F)N1CC(O)([C@@H]2CCCCN2)C1` [cobimetinib], `NC(=O)c1cccc2cn(-c3ccc([C@@H]4CCCNC4)cc3)nc12` [niraparib] is higher in “CTG-3D luminescence at 96 h” value: 1.91 for the first, 1.97 for the second.

Going from `Cc1cc(Nc2ncc(Cl)c(Nc3ccccc3S(=O)(=O)C(C)C)n2)c(OC(C)C)cc1C1CCNCC1` [ceritinib] to `CS(=O)(=O)c1ccc(C(=O)Nc2ccc(Cl)c(-c3ccccn3)c2)c(Cl)c1` [vismodegib], the “CTG-3D luminescence at 96 h” value rises from 2.11 to 2.31.

In the case of `CCN(c1cc(C#CCN2CCOCC2)cc(C(=O)NCc2c(C)cc(C)[nH]c2=O)c1C)[C@H]1CC[C@H](N(C)CCOC)CC1`, the “CTG-3D luminescence at 96 h” value is reported as 1.77.

Same assay, conditions: 1 µM

`NC1(C(=O)N[C@@H](CCO)c2ccc(Cl)cc2)CCN(c2nc[nH]c3nccc2-3)CC1` [capivasertib] and `C[C@H](NC(=O)CCC(F)(F)F)C(=O)N[C@@H]1C(=O)N(CCO)c2ncccc2-c2ccccc21` [crenigacestat] are within error of each other in “CTG-3D luminescence at 96 h” value: 1.05 ± 0.42 for the first, 1.59 ± 0.29 for the second.

First: CC(C)n1nc(-c2ccc3oc(N)nc3c2)c2c(N)ncnc21 [sapanisertib]
Second: Cc1cc(Nc2ncnc3ccc(NC4=NC(C)(C)CO4)cc23)ccc1Oc1ccn2ncnc2c1 [tucatinib]
The “CTG-3D luminescence at 96 h” value of the first is lower: 0.179 ± 0.0025 for the first, 1.52 ± 0.77 for the second.

`O=C(c1ccc(F)c(F)c1Nc1ccc(I)cc1F)N1CC(O)([C@@H]2CCCCN2)C1` [cobimetinib] and `NC(=O)c1cccc2cn(-c3ccc([C@@H]4CCCNC4)cc3)nc12` [niraparib] are within error of each other in “CTG-3D luminescence at 96 h” value: 1.6 ± 0.8 for the first, 1.7 ± 0.66 for the second.

`Cc1cc(Nc2ncc(Cl)c(Nc3ccccc3S(=O)(=O)C(C)C)n2)c(OC(C)C)cc1C1CCNCC1` [ceritinib] and `CS(=O)(=O)c1ccc(C(=O)Nc2ccc(Cl)c(-c3ccccn3)c2)c(Cl)c1` [vismodegib] are within error of each other in “CTG-3D luminescence at 96 h” value: 1.4 ± 0.34 for the first, 1.61 ± 0.78 for the second.

With `CCN(c1cc(C#CCN2CCOCC2)cc(C(=O)NCc2c(C)cc(C)[nH]c2=O)c1C)[C@H]1CC[C@H](N(C)CCOC)CC1` the “CTG-3D luminescence at 96 h” value was 1.74 ± 0.84.

Same assay, conditions: 1 µM; days in culture: 74

Compared with `NC1(C(=O)N[C@@H](CCO)c2ccc(Cl)cc2)CCN(c2nc[nH]c3nccc2-3)CC1` [capivasertib], `C[C@H](NC(=O)CCC(F)(F)F)C(=O)N[C@@H]1C(=O)N(CCO)c2ncccc2-c2ccccc21` [crenigacestat] is higher in “CTG-3D luminescence at 96 h” value: 1 for the first, 2.51 for the second.

Going from `CC(C)n1nc(-c2ccc3oc(N)nc3c2)c2c(N)ncnc21` [sapanisertib] to `Cc1cc(Nc2ncnc3ccc(NC4=NC(C)(C)CO4)cc23)ccc1Oc1ccn2ncnc2c1` [tucatinib], the “CTG-3D luminescence at 96 h” value rises from 0.158 to 2.18.

Going from `O=C(c1ccc(F)c(F)c1Nc1ccc(I)cc1F)N1CC(O)([C@@H]2CCCCN2)C1` [cobimetinib] to `NC(=O)c1cccc2cn(-c3ccc([C@@H]4CCCNC4)cc3)nc12` [niraparib], the “CTG-3D luminescence at 96 h” value rises from 1.8 to 1.88.

Compared with `Cc1cc(Nc2ncc(Cl)c(Nc3ccccc3S(=O)(=O)C(C)C)n2)c(OC(C)C)cc1C1CCNCC1` [ceritinib], `CS(=O)(=O)c1ccc(C(=O)Nc2ccc(Cl)c(-c3ccccn3)c2)c(Cl)c1` [vismodegib] is higher in “CTG-3D luminescence at 96 h” value: 1.4 for the first, 2.12 for the second.

For `CCN(c1cc(C#CCN2CCOCC2)cc(C(=O)NCc2c(C)cc(C)[nH]c2=O)c1C)[C@H]1CC[C@H](N(C)CCOC)CC1`, the “CTG-3D luminescence at 96 h” value was 1.99.

Same assay, conditions: 10 µM

Going from `NC1(C(=O)N[C@@H](CCO)c2ccc(Cl)cc2)CCN(c2nc[nH]c3nccc2-3)CC1` [capivasertib] to `C[C@H](NC(=O)CCC(F)(F)F)C(=O)N[C@@H]1C(=O)N(CCO)c2ncccc2-c2ccccc21` [crenigacestat], the “CTG-3D luminescence at 96 h” value rises from 0.559 ± 0.056 to 1.95 ± 0.64.

Compared with `CC(C)n1nc(-c2ccc3oc(N)nc3c2)c2c(N)ncnc21` [sapanisertib], `Cc1cc(Nc2ncnc3ccc(NC4=NC(C)(C)CO4)cc23)ccc1Oc1ccn2ncnc2c1` [tucatinib] is higher in “CTG-3D luminescence at 96 h” value: 0.212 ± 0.067 for the first, 1.91 ± 0.23 for the second.

`O=C(c1ccc(F)c(F)c1Nc1ccc(I)cc1F)N1CC(O)([C@@H]2CCCCN2)C1` [cobimetinib] and `NC(=O)c1cccc2cn(-c3ccc([C@@H]4CCCNC4)cc3)nc12` [niraparib] are within error of each other in “CTG-3D luminescence at 96 h” value: 1.58 ± 0.09 for the first, 1.55 ± 0.56 for the second.

First: Cc1cc(Nc2ncc(Cl)c(Nc3ccccc3S(=O)(=O)C(C)C)n2)c(OC(C)C)cc1C1CCNCC1 [ceritinib]
Second: CS(=O)(=O)c1ccc(C(=O)Nc2ccc(Cl)c(-c3ccccn3)c2)c(Cl)c1 [vismodegib]
The “CTG-3D luminescence at 96 h” value of the first is lower: 0.353 ± 0.48 for the first, 1.85 ± 0.35 for the second.

With `CCN(c1cc(C#CCN2CCOCC2)cc(C(=O)NCc2c(C)cc(C)[nH]c2=O)c1C)[C@H]1CC[C@H](N(C)CCOC)CC1` the “CTG-3D luminescence at 96 h” value was 2.09 ± 0.45.

Same assay, conditions: 10 µM; days in culture: 74

Compared with `NC1(C(=O)N[C@@H](CCO)c2ccc(Cl)cc2)CCN(c2nc[nH]c3nccc2-3)CC1` [capivasertib], `C[C@H](NC(=O)CCC(F)(F)F)C(=O)N[C@@H]1C(=O)N(CCO)c2ncccc2-c2ccccc21` [crenigacestat] is higher in “CTG-3D luminescence at 96 h” value: 0.548 for the first, 2.95 for the second.

Going from `CC(C)n1nc(-c2ccc3oc(N)nc3c2)c2c(N)ncnc21` [sapanisertib] to `Cc1cc(Nc2ncnc3ccc(NC4=NC(C)(C)CO4)cc23)ccc1Oc1ccn2ncnc2c1` [tucatinib], the “CTG-3D luminescence at 96 h” value rises from 0.168 to 3.

Going from `O=C(c1ccc(F)c(F)c1Nc1ccc(I)cc1F)N1CC(O)([C@@H]2CCCCN2)C1` [cobimetinib] to `NC(=O)c1cccc2cn(-c3ccc([C@@H]4CCCNC4)cc3)nc12` [niraparib], the “CTG-3D luminescence at 96 h” value rises from 2.39 to 2.89.

Compared with `Cc1cc(Nc2ncc(Cl)c(Nc3ccccc3S(=O)(=O)C(C)C)n2)c(OC(C)C)cc1C1CCNCC1` [ceritinib], `CS(=O)(=O)c1ccc(C(=O)Nc2ccc(Cl)c(-c3ccccn3)c2)c(Cl)c1` [vismodegib] is higher in “CTG-3D luminescence at 96 h” value: 0.0662 for the first, 3.48 for the second.

`CCN(c1cc(C#CCN2CCOCC2)cc(C(=O)NCc2c(C)cc(C)[nH]c2=O)c1C)[C@H]1CC[C@H](N(C)CCOC)CC1` was tested, and the “CTG-3D luminescence at 96 h” value was 3.31.

Same assay, conditions: 100 µM

First: NC1(C(=O)N[C@@H](CCO)c2ccc(Cl)cc2)CCN(c2nc[nH]c3nccc2-3)CC1 [capivasertib]
Second: C[C@H](NC(=O)CCC(F)(F)F)C(=O)N[C@@H]1C(=O)N(CCO)c2ncccc2-c2ccccc21 [crenigacestat]
The “CTG-3D luminescence at 96 h” value of the first is lower: 0.275 ± 0.02 for the first, 1.98 ± 0.95 for the second.

Compared with `CC(C)n1nc(-c2ccc3oc(N)nc3c2)c2c(N)ncnc21` [sapanisertib], `Cc1cc(Nc2ncnc3ccc(NC4=NC(C)(C)CO4)cc23)ccc1Oc1ccn2ncnc2c1` [tucatinib] is lower in “CTG-3D luminescence at 96 h” value: 0.311 ± 0.016 for the first, 0.142 ± 0.068 for the second.

`O=C(c1ccc(F)c(F)c1Nc1ccc(I)cc1F)N1CC(O)([C@@H]2CCCCN2)C1` [cobimetinib] and `NC(=O)c1cccc2cn(-c3ccc([C@@H]4CCCNC4)cc3)nc12` [niraparib] are within error of each other in “CTG-3D luminescence at 96 h” value: 0.00136 ± 0.0022 for the first, 0.00155 ± 0.00027 for the second.

First: Cc1cc(Nc2ncc(Cl)c(Nc3ccccc3S(=O)(=O)C(C)C)n2)c(OC(C)C)cc1C1CCNCC1 [ceritinib]
Second: CS(=O)(=O)c1ccc(C(=O)Nc2ccc(Cl)c(-c3ccccn3)c2)c(Cl)c1 [vismodegib]
The “CTG-3D luminescence at 96 h” value of the first is lower: -0.00338 ± 0.0019 for the first, 1.13 ± 0.33 for the second.

`CCN(c1cc(C#CCN2CCOCC2)cc(C(=O)NCc2c(C)cc(C)[nH]c2=O)c1C)[C@H]1CC[C@H](N(C)CCOC)CC1` was tested, and the “CTG-3D luminescence at 96 h” value was 2.03 ± 0.59.
